# Where two headings read alike, the source gives them in different places.
# What was measured:
# [1] = cited from earlier work
# [2] = type: physicochemical
# Experimental: Polymer solutions of 1 […] 6 mgmL^-1 were made up in deionised water and probe sonicated for 10 mins to ensure homogeneity. […] A reverse phase Phenomenex C18 250 mm×46 mm×5 μm HPLC column was used with flow rate of 1 mlmin^-1 of the mobile phase (45:55 acetonitrile:45 mM potassium dihydrogen phosphate made up in water and pH adjusted to pH3 with orthophosphoric acid) in an isocratic mode.
# [3] = type: physicochemical; remark: listed apart in the source
# Experimental: (§1) Polymer solutions of 1 mgmL^−1, 3 mgmL^−1 and 6 mgmL^−1 were made up in deionised water and probe sonicated for 10 mins to ensure homogeneity. The hydrophobic drug was added in 1:1, 5:1 and 10:1 drug:excipient ratios and the drug-polymer solutions were probe sonicated for a further 10 mins to ensure maximum encapsulation was achieved. After cooling to room temperature, the solutions were filtered using 0.45 μm GDX PVDF syringe filters to ensure any excess unencapsulated propofol was removed.
# A reverse phase Zorbax ODS 250 mm×46 mm×5 […] HPLC column was used with flow rate of 1 mlmin^−1 of the mobile phase (40:3:57 methanol:acetonitrile:water) in an isocratic mode. […] The samples were diluted with mobile phase and 20 μl was injected onto the column, the resultant peak at 20 mins was analysed. The drug content was determined by comparing to a calibration carried out on etoposide dissolved in methanol (31.3-500 μgmL^−1).
# [4] = type: physicochemical; remark: listed apart in the source
# Experimental: Polymer solutions of 1 […] 6 mgmL^-1 were made up in deionised water and probe sonicated for 10 mins to ensure homogeneity. […] The drug loading capacity of the self assemblies was determined using high performance liquid chromatography (HPLC). […] The samples were diluted with mobile phase and 20 μl was injected onto the column, the resultant peak at 7 mins was analysed.
# Caco-2 cells = assay: MTT assay on Caco-2 cells; type: cell-based
# Experimental: The cytotoxicity of the modified PAA polymers was determined using the MTT assay model. Caco-2 cells were cultured in minimum essential medium (MEM) containing 10% foetal bovine serum (FBS), 1% L-glutamine and 1% non essential amino acids (NEAA).
# A 10 mgmL^−1 polymer solution was prepared using sterile water as the diluent. The solution was further diluted with media to form a 0.5 mgmL^−1 stock solution. From the stock solution nine dilutions (0.2-1×10^−4 mgmL^−1) were made using media as the diluent.
# Caco-2 cells (200 μL, 10000 cells/well) in exponential growth phases were seeded into a 96-well flat bottomed plate and incubated for 24 h at 37° C. with 5% CO2. The media was replaced with increasing polymer concentrations (0.5-1×10^−4 mgmL^−1) as prepared above. Media and Triton X (1:5 PBS) were the negative and positive controls respectively. The plate was incubated as before. After 24 h the polymer solutions were removed and replaced with fresh media. […] The remaining purple formazan complexes were dissolved in DMSO (200 μL) and L-glycine buffer (25 mL, made up of 3.75 g glycine and 2.93 g NaCl made up in 500 mL and pH adjusted to pH 10.5) and the absorbance of the plates was read at 570 nm using a microplate reader (Ascend Lab-Systems, UK). Percentage cell viability was calculated relative to the positive and negative controls. […]
# HEK 293 cells = assay: MTT assay on HEK 293 cells; type: cell-based, Human; conditions: for IC50: Homo sapiens
# Experimental: The safety profile of various drugs and nano-aggregates of the drugs and polymers were investigated using the standard colorimetric MTT (3-(4,5-Dimethylthiazol-2-yl)-2,5-diphenyltetrazolium bromide) assay.
# An MTT assay was carried out using Caco-2 and HEK cells. Caco-2 cells were cultured as previously described. HEK cells were cultured in Dulbecco's minimum essential medium (DMEM) containing 10% FBS and 1% penicillin streptomycin (Penstrep).
# Polymeric self-assemblies were formed by probe sonicating the polymers in sterile water (5 mgmL^−1). The polymer stock solutions were diluted to 0.005 mgmL^−1 with media. Etoposide stock solution (20 mgmL^−1) was prepared by diluting the drug in DMSO. The formulations were prepared by addition of drug into 0.005 mgmL^−1 polymer solution.
# [5] = Drug loading capacity: solubilisation of prednisolone (HPLC); type: physicochemical
# [6] = type: physicochemical; remark: listed apart in the source
# Experimental: as §1
# The BNIPDaoct content in self assemblies was carried out using reverse phase Zorbax ODS 250 mm×46 mm×5 […] HPLC column was used with flow rate of 1 mlmin^−1 of the mobile phase (55:45 buffer:acteonitrile) in an isocratic mode. The buffer was made up of 0.4 g octane sulfonic acid and anhydrous sodium acetate made up to 200 ml with deionised water, the solution was pH adjusted to pH4.5. The column eluent was monitored using a fluorescent Detector. The samples were diluted with mobile phase and 20 μl was injected onto the column, the resultant peak at 10 mins was analysed. A calibration was carried out by dissolving BNIPDaoct in DMSO:water (50:50 v/v) (39-625 μgmL^−1).
# [7] = Aqueous solubility of model hydrophobic drugs; type: physicochemical
molecule,measurement,setting,value
"CC(C)c1cccc(C(C)C)c1O [Propofol, 2,6-diisopropylphenol]",aqueous solubility,[1]; 25° C.,100 µg/mL
same,aqueous solubility,[1]; value used for fold increase,0.1 mgmL^−1
5-Dimethylamino-1-naphthalenesulfonyl-PAA [Dansyl10],Increase from aqueous solubility,[2],557 Fold
same,Concentration of Etoposide solubilised,[3],1.890 (0.011) mgmL^−1
5-Dimethylamino-1-naphthalenesulfonyl-PAA [Dansyl5],maximum concentration of propofol solubilised,[4],22.4 mgmL^−1
COc1cc([C@@H]2c3cc4c(cc3[C@@H](O[C@@H]3O[C@@H]5CO[C@@H](C)O[C@H]5[C@H](O)[C@H]3O)[C@H]3COC(=O)[C@H]23)OCO4)cc(OC)c1O [Etoposide],IC50,"Caco-2 cells; Homo sapiens, Caco-2, read-out: IC50 on Caco-2 cells",190 µg/mL
same,IC50,"HEK 293 cells; HEK293, read-out: IC50 (n = 3 ± SD), HEK 293 cells, IC50 of the polymer was used in the formulations",2.48 µg/mL
same,IC50,"HEK 293 cells; HEK293, IC90 of the polymer used in the formulations (5 μgmL^−1), read-out: IC50 on HEK 293 cells",2.5 µg/mL
same,aqueous solubility,[1]; 37° C.,148 to 153 µg/mL
same,aqueous solubility,[1]; value used for fold increase,0.15 mgmL^−1
Cholesterol-PAA [Ch5],maximum concentration of prednisolone solubilised,[5],7.05 mgmL^−1
same,Concentration of Griseofulvin solubilised,[2],1.2 mgmL^−1
same,Excipient:Drug Ratio after solubilisation,[2],5.00
same,Increase from aqueous solubility,[2],40 Fold
same,Number of fold more cytotoxic compared to IC50 of PAA,Caco-2 cells,−1.61
same,Concentration of Etoposide solubilised,[3],1.020 (0.040) mgmL^−1
same,Excipient:Drug Ratio after solubilisation,[3],5.88
same,Increase from aqueous solubility,[3],7 Fold
same,Concentration of BNIPDaoct solubilised,[6],0.3 mgmL^−1
same,Excipient:Drug Ratio after solubilisation,[6],3.33
"O=C1c2cccc3cccc(c23)C(=O)N1CCCNCCCCCCCCNCCCN1C(=O)c2cccc3cccc(c23)C1=O [BNIPDaoct, Bisnahthalimidopropyldiaminooctane]",aqueous solubility (in words),[7],negligible
same,IC50 (n = 3 ± SD),"HEK 293 cells; HEK 293 cells, IC50 of the polymer was used in the formulations",0.00496 (0.00005) mgmL^−1
"COC1=CC(=O)C[C@@H](C)[C@]12Oc1c(Cl)c(OC)cc(OC)c1C2=O [Griseofulvin, (2S)-trans-7-chloro-2′,4,6-trimethoxy 6′-methylspiro(benzofuran-2[3H],1′-[2]cyclohexene)3,4′-dione]",aqueous solubility,[1]; 25° C.,30 µg/mL
same,aqueous solubility,[1]; value used for fold increase,0.03 mgmL^−1
